Reference: patent US9278962B2 (Cytokinetics, Inc., priority 2011, dated 2016)

Each compound was assayed on rabbit skeletal myofibrils (approximately 90% fast fibers) (assay: Activation of fast skeletal myofibrils (PUMA coupled-enzyme ATPase assay, AC1.4)). Conditions: Table 2; concentration at which the compound increased enzymatic activity by 40%; calcium at pCa25.
Format: biochemical
Method: Rabbit skeletal myofibrils were prepared based upon the method of Herrmann et al. (Biochem. 32(28):7255-7263(1993). Myofibrils were prepared from rabbit psoas muscle purchased from Pel-Freez Biologicals (Arkansas) within 2 days of ordering, stored on ice. Minced muscle was homogenized in 10 volumes of ice-cold “standard” buffer (50 mM Tris, pH 7.4, 0.1 M potassium acetate, 5 mM KCl, 2 mM DTT, 0.2 mM PMSF, 10 μM leupeptin, 5 μM pepstatin, and 0.5 mM sodium azide) containing 5 mM EDTA and 0.5% Triton X-100 using an Omni-Macro homogenizer. Myofibrils were recovered by low speed centrifugation (3000 rpm for 10 minutes) and washed 2 times in the Triton X-100 containing buffer to ensure removal of cellular membrane. Following the Triton washes, myofibrils were washed 3 times in “standard” buffer containing 2 mM magnesium acetate. A final wash in assay buffer (12 mM PIPES, pH 6.8, 60 mM KCl, 1 mM DTT) was performed and brought to 10% sucrose for flash freezing in liquid nitrogen and storage at −80° C.
Fast fiber activators were identified by measuring the enzymatic activity of muscle myofibril preparations using the proprietary PUMA™ (see, e.g., U.S. Pat. Nos. 6,410,254, 6,743,599, 7,202,051, and 7,378,254) assay system. Myofibril preparations consisted of rabbit skeletal muscle (approximately 90% fast fibers) that had been mechanically homogenized and washed with a detergent (triton X-100) to remove cellular membranes. This preparation retained all of the sarcomeric components in a native conformation and the enzymatic activity was still regulated by calcium. Compounds were tested using a myofibril suspension and a level of calcium sufficient to increase enzymatic activity of the myofibrils to 25% of their maximal rate (termed pCa25). Enzymatic activity was tracked via a pyruvate kinase and lactate dehydrogenase-coupled enzyme system. This assay regenerates myosin-produced ADP into ATP by oxidizing NADH, producing an absorbance change at 340 nm. The buffering system was 12 mM Pipes, 2 mM MgCl2, 1 mM DTT at pH 6.8 (PM12 buffer).
Using procedures similar to those described herein, utilizing reagents and intermediates commercially available (e.g., Sigma-Aldrich) or readily synthesized by one of skill in the art, the compounds in Table 2, Table 3, Table 4 and Table 5 were synthesized, characterized and tested. AC1.4 values were determined according to the procedure described in Example 6, and the reported median AC1.4 values are as follows: A=<1 uM; B=1-10 uM; C=10-20 uM; D=>20 uM.

Compound | Mean AC1.4
CC(C)(CNc1nc(-c2ccc(C#N)c(F)c2)ns1)c1ccc(F)cc1 [2-fluoro-4-(5-{[2-(4-fluorophenyl)-2-methylpropyl]amino}(1,2,4-thiadiazol-3-yl))benzenecarbonitrile] | B (B=1-10 uM)
CC(C)(CNc1nc(CCC(=O)N2CC[C@H](O)C2)ns1)c1ccc(F)cc1 [1-((3S)-3-hydroxypyrrolidinyl)-3-(5-{[2-(4-fluorophenyl)-2-methylpropyl]amino}(1,2,4-thiadiazol-3-yl))propan-1-one] | D (D=>20 uM)
CC(C)(CNc1nc(Cc2ccc(O)cc2)ns1)c1ccc(F)cc1 [4-[(5-{[2-(4-fluorophenyl)-2-methylpropyl]amino}-1,2,4-thiadiazol-3-yl)methyl]phenol] | A (A=<1 uM)
NC(=O)c1ccc(F)c(-c2nsc(NC3(c4ncccc4F)CCC3)n2)c1 [4-fluoro-3-(5-{[(3-fluoro(2-pyridyl))cyclobutyl]amino}(1,2,4-thiadiazol-3-yl))benzamide] | D (D=>20 uM)
CC(C)(CNc1nc(CNC(=O)CN)ns1)c1ccc(F)cc1 [2-amino-N-[(5-{[2-(4-fluorophenyl)-2-methylpropyl]amino}(1,2,4-thiadiazol-3-yl))methyl]acetamide] | C (C=10-20 uM)
C[C@H](CNc1nc(-c2ccc(O)nc2)ns1)c1ccc(F)cc1 [5-(5-{[(2S)-2-(4-fluorophenyl)propyl]amino}-1,2,4-thiadiazol-3-yl)pyridin-2-ol] | B (B=1-10 uM)
CC(C)(CNc1nc(CC(O)CO)ns1)c1ccc(F)cc1 (centres unmarked) [3-(5-{[2-(4-fluorophenyl)-2-methylpropyl]amino}-1,2,4-thiadiazol-3-yl)propane-1,2-diol] | B (B=1-10 uM)

Second part, the compound after the results:

Mean AC1.4 | Compound
A (A=<1 uM) | COc1cccc(Cc2nsc(NC[C@@H](C)c3ccc(F)cc3)n2)c1 [[(2S)-2-(4-fluorophenyl)propyl]{3-[(3-methoxyphenyl)methyl](1,2,4-thiadiazol-5-yl)}amine]
A (A=<1 uM) | COc1cccc(Cc2nsc(NCC(C)(C)c3ccc(F)cc3)n2)c1 [[2-(4-fluorophenyl)-2-methylpropyl]{3-[(3-methoxyphenyl)methyl](1,2,4-thiadiazol-5-yl)}amine]
D (D=>20 uM) | Fc1cccnc1C1(CNc2nsc(-c3ccccc3)n2)CCC1 [N-((1-(3-fluoropyridin-2-yl)cyclobutyl)methyl)-5-phenyl-1,2,4-thiadiazol-3-amine]
D (D=>20 uM) | CN(C)Cc1nsc(NCC(C)(C)c2ccc(F)cc2)n1 [[(5-{[2-(4-fluorophenyl)-2-methylpropyl]amino}(1,2,4-thiadiazol-3-yl))methyl]dimethylamine]
D (D=>20 uM) | Fc1ccc(Cc2nsc(NCCc3ccccc3Cl)n2)cc1 [[2-(2-chlorophenyl)ethyl]{3-[(4-fluorophenyl)methyl](1,2,4-thiadiazol-5-yl)}amine]
D (D=>20 uM) | Fc1ccc(Cc2nsc(NCc3ccc(Cl)cc3)n2)cc1 [[(4-chlorophenyl)methyl]{3-[(4-fluorophenyl)methyl])1,2,4-thiadiazol-5-yl)}amine]
A (A=<1 uM) | CNC(=O)c1cccc(-c2nsc(NCC(C)(C)c3ccc(F)cc3)n2)c1 [[3-(5-{[2-(4-fluorophenyl)-2-methylpropyl]amino}(1,2,4-thiadiazol-3-yl))phenyl]-N-methylcarboxamide]
B (B=1-10 uM) | Cn1cc(-c2nsc(NCC(C)(C)c3ccc(F)cc3)n2)cn1 [[2-(4-fluorophenyl)-2-methylpropyl][3-(1-methylpyrazol-4-yl)(1,2,4-thiadiazol-5-yl]
D (D=>20 uM) | COc1ccc(CCNc2nc(Cc3cccc(OC)c3)ns2)cc1 [[2-(4-methoxyphenyl)ethyl]{3-[(3-methoxyphenyl)methyl](1,2,4-thiadiazol-5-yl)}amine]
D (D=>20 uM) | CC(C)(CNc1nc(CN2CCCC2)ns1)c1ccc(F)cc1 [[2-(4-fluorophenyl)-2-methylpropyl][3-(pyrrolidinylmethyl)(1,2,4-thiadiazol-5-yl)]amine]
C (C=10-20 uM) | CC(C)(CNc1nc(C(N)=O)ns1)c1ccc(F)cc1 [5-{[2-(4-Fluorophenyl)-2-methylpropyl]amino}-1,2,4-thiadiazole-3-carboxamide]
B (B=1-10 uM) | Fc1cccnc1C1(CNc2nc(-c3ccccc3)ns2)CCC1 [{[(3-fluoro(2-pyridyl))cyclobutyl]methyl}(3-phenyl(1,2,4-thiadiazol-5-yl))amine]
C (C=10-20 uM) | CC(C)(CNc1nc(CCN2CC[C@@H](O)C2)ns1)c1ccc(F)cc1 [(3R)-1-[2-(5-{[2-(4-fluorophenyl)-2-methylpropyl]amino}(1,2,4-thiadiazol-3-yl))ethyl]pyrrolidin-3-ol]
D (D=>20 uM) | COc1cccc(Cc2nsc(NCCc3ccc4c(c3)OCO4)n2)c1 [(2-(2H-benzo[d]1,3-dioxolan-5-yl)ethyl){3-[(3-methoxyphenyl)methyl](1,2,4-thiadiazol-5-yl)}amine]
D (D=>20 uM) | COc1cccc(Cc2nsc(NCc3ccc(Cl)c(Cl)c3)n2)c1 [[(3,4-dichlorophenyl)methyl]{3-[(3-methoxyphenyl)methyl](1,2,4-thiadiazol-5-yl)}amine]
D (D=>20 uM) | COC(=O)CNc1nc(-c2cccc(C#N)c2)ns1 [methyl 2-{[3-(3-cyanophenyl)-1,2,4-thiadiazol-5-yl]amino}acetate]
B (B=1-10 uM) | CC(C)(CNc1nc(CNC(=O)CO)ns1)c1ccc(F)cc1 [N-[(5-{[2-(4-fluorophenyl)-2-methylpropyl]amino}(1,2,4-thiadiazol-3-yl))methyl]-2-hydroxyacetamide]
B (B=1-10 uM) | Fc1ccc(CCNc2nc(Cc3ccc(F)cc3)ns2)cc1 [[2-(4-fluorophenyl)ethyl]{3-[(4-fluorophenyl)methyl](1,2,4-thiadiazol-5-yl)}amine]
D (D=>20 uM) | CC(C)CCNc1nc(Cc2ccc(F)cc2)ns1 [{3-[(4-fluorophenyl)methyl](1,2,4-thiadiazol-5-yl)}(3-methylbutyl)amine]

Same assay, conditions: Table 3; concentration at which the compound increased enzymatic activity by 40%; calcium at pCa25

Mean AC1.4 | Compound
B (B=1-10 uM) | NC(=O)c1cccc(-c2nnc(NC[C@]3(c4ncccc4F)C[C@@H](F)C3)s2)c1 [3-(5-(((cis)-3-fluoro-1-(3-fluoropyridin-2-yl)cyclobutyl)methylamino)-1,3,4-thiadiazol-2-yl)benzamide]
A (A=<1 uM) | C=Cc1ccc(F)c(-c2nnc(NC[C@]3(c4ncccc4F)C[C@H](F)C3)s2)c1 [N-((3-fluoro-1-(3-fluoropyridin-2-yl)cyclobutyl)methyl)-5-(2-fluoro-5-vinylphenyl)-1,3,4-thiadiazol-2-amine]
B (B=1-10 uM) | Cc1cc(C#N)sc1-c1nnc(NC[C@]2(c3ncccc3F)C[C@H](F)C2)s1 [5-(5-((3-fluoro-1-(3-fluoropyridin-2-yl)cyclobutyl)methylamino)-1,3,4-thiadiazol-2-yl)-4-methylthiophene-2-carbonitrile]
B (B=1-10 uM) | CC(C)(Nc1nnc(-c2cc(Br)ccc2F)s1)c1ncccc1F [5-(5-bromo-2-fluorophenyl)-N-(2-(3-fluoropyridin-2-yl)propan-2-yl)-1,3,4-thiadiazol-2-amine]
A (A=<1 uM) | CC(C)(CNc1nnc(-c2ccc3[nH]nc(N)c3c2)s1)c1ccc(F)cc1 [5-(3-amino-1H-indazol-5-yl)-N-(2-(4-fluorophenyl)-2-methylpropyl)-1,3,4-thiadiazol-2-amine]
B (B=1-10 uM) | N#Cc1ccc(C#N)c(-c2nnc(NC[C@]3(c4ncccc4F)C[C@H](F)C3)s2)c1 [2-(5-((3-fluoro-1-(3-fluoropyridin-2-yl)cyclobutyl)methylamino)-1,3,4-thiadiazol-2-yl)terephthalonitrile]
B (B=1-10 uM) | Cc1ccc(C#N)cc1-c1nnc(NC[C@]2(c3ncccc3F)C[C@H](F)C2)s1 [3-(5-((3-fluoro-1-(3-fluoropyridin-2-yl)cyclobutyl)methylamino)-1,3,4-thiadiazol-2-yl)-4-methylbenzonitrile]

Same assay, conditions: Table 4; concentration at which the compound increased enzymatic activity by 40%; calcium at pCa25

Mean AC1.4 | Compound
C (C=10-20 uM) | CC(C)(CNc1nc2ccc(C(=O)O)cc2s1)c1ccc(F)cc1 [2-(2-(4-fluorophenyl)-2-methylpropylamino)benzo-6-carboxylic acid]
B (B=1-10 uM) | NC(=O)c1ccc2nc(NCC3(c4ncccc4F)CCC3)sc2c1 [2-((1-(3-fluoropyridin-2-yl)cyclobutyl)methylamino)benzo[d] thiazole-6-carboxamide]
